Source: publication PMC9503459, “Antifungal Activity, Structural Stability, and Immunomodulatory Effects on Human Immune Cells of Defensin from the Lentil Lens culinaris” (Membranes, 2022)
No end group written: not given here.

How the values were obtained:
[1] = tested on: clinical isolate of C. glabrata (252/2); assay: Antifungal microdilution assay, C. glabrata; format: cell-based, Candida glabrata; settings: 24 h; for inhibition of the growth: C. glabrata
Protocol: The clinical isolates of Candida albicans (v47a3), C. krusei (225/2) and C. glabrata (252/2) were collected from patients with human immunodeficiency virus (HIV) infection and provided by G.N. Gabrichevsky Research Institute for Epidemiology and Microbiology (Moscow, Russia). Strains stocks were kept at −70 ℃ in 10% nonfat milk with 10% glycerol.
Antifungal susceptibility tests were performed by the microdilution method using 96-well microplates. Yeast cells in stock were inoculated onto modified YPD (yeast extract 5 g/L, peptone 10 g/L, glucose 10 g/L) agar plates, and incubated for 24 h at 37 ℃. After replating, cells were cultured in modified YPD broth at 37 ℃ to optical density 1.0 at 540 nm. Further, yeast cells in modified YPD broth at concentration of 5 × 10^4 cells/mL were mixed with equal volumes of serial two-fold dilutions of the peptide in water which started at the highest peptide concentration of 200 µM. Final peptide concentrations in the wells were 100, 50, 25, 12.5, 6.25, 3.125, and 1.56 μM. Controls without defensin were also tested. Plates were incubated at 30 ℃ during 24 h. Yeast growth was estimated using inverted microscope as well as by measuring the optical density at 540 nm. Percentage of growth inhibition was defined as: growth inhibition (%) = ((Acontrol − Asample)/Acontrol) × 100%. All of the experiments were performed twice in triplicate. The t-test was performed to study the statistical difference (p-value) between the means of controls and samples with different peptide concentrations. The experiment with lentil Lens culinaris lipid transfer protein Lc-LTP2 was carried out for comparison.

[2] = tested on: proteolytic enzymes of Candida albicans; assay: Sensitivity to proteolytic enzymes of Candida albicans (cell lysate, SDS-PAGE); format: in vitro ADME; settings: C. albicans lysate 10^9 cells/mL, up to 72 h, SDS-PAGE
Protocol: For study of Lc-def sensitivity to the clinical isolate of C. albicans, lysates of yeast cells in different concentration and pH were used basically as previously described for rhesus macaque θ-defensin 1 [22]. Cells were inoculated onto modified YPD medium and grown at 37 ℃ for 48 h before reaching the stationary phase of growth. Cells were harvested by centrifugation, washed two times in sterile phosphate buffered saline (PBS), pH 7.2, or sterile 40 mM sodium acetate, pH 4.0, and resuspended in the corresponding buffer to final concentrations of 1 × 10^9 cells/mL or 1 × 10^3 cells/mL. Two freeze-thaw cycles in liquid nitrogen were used for cell disruption, and supernatants were collected following centrifugation. Supernatants (12.5 μL) were mixed with water solutions (37.5 μL) of Lc-def, α-casein, Psd1, or LL-37 in concentration of 0.67 mg/mL and incubated at 37 ℃ for 72 or 24 h in the case of high or low cell concentration, respectively. To study the possible influence of Lc-def and Psd1 on the degradation process, supernatants (12.5 μL) were mixed with both α-casein or LL-37 in concentration of 1 mg/mL (25 μL) and Lc-def or Psd1 in concentration of 2 mg/mL (12.5 μL). As negative controls, α-casein and peptides were mixed with buffers as well as supernatants were mixed with water without the proteins. The samples were mixed with sample buffer without β-mercaptoethanol (BME), heated at 100 ℃ for 2 min, and analyzed by sodium dodecyl sulfate polyacrylamide gel electrophoresis (SDS-PAGE). Some independent experiments were performed in each case.

## Lc-def: defensin from lentil Lens culinaris seeds (UniProt:B3F051), recombinant, overexpressed in Escherichia coli (KTCENLSDSFKGPCIPDGNCNKHCKEKEHLLSGRCRDDFRCWCTRNC; disulfide (positions not given here); ends not checked; also: disulfide bonds present, pairing not given here; UniProt B3F051 28-74, looked up)
[1]; C. glabrata clinical isolate, microdilution, modified YPD, 30 °C, OD540, twice in triplicate, read-out: concentration causing 50% growth inhibition
  IC50: 25 to 50 µM
[1]; 50 μM peptide
  inhibition of the growth: ~90%
[1]; 100 μM peptide
  inhibition of the growth: < 100%
[2]; 40 mM sodium acetate pH 4.0, 37 °C
  stability to proteolysis by yeast: stable
[2]; PBS pH 7.2, 37 °C, densitometry, immunoblotting
  stability to proteolysis by yeast: stable
